Measurements published in ChEMBL document CHEMBL1156335, “Inhibition studies of a beta-carbonic anhydrase from Brucella suis with a series of water soluble glycosyl sulfanilamides” (Bioorg Med Chem Lett, 2010).
Calls of active or inactive are those of the source. No cut-off for these calls is given here.

Target: T1, Histidinol dehydrogenase (Brucella suis biovar 1 (strain 1330)) (UniProt Q8G2R2)
T1 sequence (whole entry): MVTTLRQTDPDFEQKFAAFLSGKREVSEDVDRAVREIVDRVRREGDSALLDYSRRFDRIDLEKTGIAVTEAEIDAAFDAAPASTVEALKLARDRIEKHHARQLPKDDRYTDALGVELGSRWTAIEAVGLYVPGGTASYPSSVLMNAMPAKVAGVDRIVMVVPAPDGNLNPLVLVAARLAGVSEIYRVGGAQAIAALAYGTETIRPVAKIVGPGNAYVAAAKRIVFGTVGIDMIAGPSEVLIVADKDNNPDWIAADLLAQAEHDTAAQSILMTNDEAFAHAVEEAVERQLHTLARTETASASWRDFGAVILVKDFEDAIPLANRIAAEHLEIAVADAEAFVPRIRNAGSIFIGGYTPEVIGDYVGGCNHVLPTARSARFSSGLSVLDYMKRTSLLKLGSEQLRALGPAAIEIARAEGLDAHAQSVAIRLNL
Test: Antibacterial activity against Brucella suis at 10 uM after 8 to 11 days
Type: functional

`C[C@H]1O[C@@H](Nc2ccc(S(N)(=O)=O)cc2)[C@@H](O)[C@@H](O)[C@@H]1O` was tested, and the Activity was “Active”.
